Read-outs that look alike come from different tables or passages of the source.
Columns and labels:
[1] = Hepatocyte intrinsic clearance with and without ABT (human); format: in vitro ADME; settings: cryopreserved human hepatocytes, human hepatocytes, 0.3 µmol/L compound
Procedure: (§1) The intrinsic clearance was determined in cryopreserved dog and human hepatocytes essentially as described previously.4 The assay incubation contained 0.3 µmol/L compound and hepatocytes at a concentration of 10^6 cells/mL, with and without 30 minutes pre‐incubation of 1 mmol/L ABT. Intrinsic clearance measurement was initiated by the addition of compound and the incubation quenched at 0.6, 15, 30, 60 and 90 minutes for DPTQ, and at 0.6, 15, 30, 60, 120 and 240 minutes by addition of acetonitrile with 0.1% formic acid. Samples were centrifuged at 3500 g for 10 minutes and the supernatant was analyzed to quantify parent compound loss and the intrinsic clearance values (μL/min/10^6 cells) were calculated using following equation for incubations with and without ABT. CLint=-kdep×incubation volume/10^6cells
(§2) In which the depletion rate constant (k dep) is the slope determined using linear regression from the log transformed percentage remaining on the y‐axis vs time on the x‐axis (min^− ^1). The fraction of metabolism (fm) by P450 was determined by the measurement of the percentage of inhibition of Clint by ABT.

[2] = system: cryopreserved human hepatocytes; test: as above; format: in vitro ADME; settings: for % of inhibition by ABT: human hepatocytes, inhibition of Clint by 1 mmol/L ABT (fm by P450); for Hepatic fm by UGT: human, in hepatocytes
Procedure: as §1, §2

[3] = system: cryopreserved dog hepatocytes; test: Hepatocyte metabolite profile with and without ABT (dog); format: in vitro ADME; settings: 4 h, 2 μmol/L
Procedure: Cryopreserved dog and human hepatocytes were obtained from BioreclamationIVT (Baltimore, MD). […] A stock solution of canagliflozin and DTPQ was added to medium to give a final incubation concentration of 2 μmol/L. The incubations including the media and cells were quenched after 4 hours with an equal volume of acetonitrile containing 200 ng/mL niflumic acid as internal standard. Samples were centrifuged at 3500 g for 10 minutes and the supernatant was analyzed by liquid chromatography coupled to a diode array UV detection and mass spectrometry system consisting of the Acquity ultra‐performance liquid chromatography column, Synapt G2‐S mass spectrometer, and an ultra‐performance liquid chromatography photodiode array detector (Waters, Milford, MA). The chromatographic separation of metabolites was achieved on a Waters 1.7‐μm Acquity BEH C18 (100 × 2.1 mm) column maintained at 60°C. The mobile phase consisted of solvent A (0.2% formic acid in water for DPTQ and 10 mmol/L ammonium acetate in water for canagliflozin) and solvent B (100% acetonitrile). The samples were eluted, at a flow rate of 0.5 mL/min with a gradient for 5 minutes. The LC/MS full scan data were processed by Metabolynx (Waters, Milford, MA) to identify metabolites. Product ion spectra were acquired to confirm the metabolites. The mass spectrometer was operated in positive ion mode with an electrospray ionization source. The parameters for the chamber were: capillary 1.0 kV, sample cone 50 V, source temperature 120°C, desolvation 500°C, and collision energy 25 V. The peak areas for parent, metabolite and internal standard were integrated to allow for comparison between conditions.

[4] = system: UGT (glucuronidation); test: Kidney microsomal glucuronidation assay (human); format: in vitro ADME; settings: kidney microsomes, pH 7.5, human, with 2% BSA
Procedure: (§3) Intrinsic clearance of the compounds by glucuronidation was conducted in human and dog liver and kidney microsomes. Microsomes (0.5 mg/mL) with or without 2% bovine serum albumin (BSA), 100 mmol/L Tris‐HCl buffer, (pH 7.5), containing 5 mmol/L MgCl2 and 50 µg of alamethicin were mixed and placed on ice for 15 minutes. Canagliflozin or DPTQ (2 µmol/L final concentration) were added, and the mixture was pre‐incubated at 37°C for 3 minutes. A 0‐minute time point was obtained and the reaction initiated by the addition of UDPGA (5 mmol/L final concentration). Aliquots of the incubation (50 µL) were removed at various time points 5, 15, 30, 60 and 120 minutes, and added to the quench solution (1:1 acetonitrile:water). The zero minute time points were also quenched in the same manner. Substrate concentrations were then measured by LC/MS and the intrinsic clearance values (μL/min/mg protein) were calculated using following equation. CLint=-kdep×incubation volume/mg protein
(§4) In which the depletion rate constant (k dep) is the slope determined using linear regression from the log transformed % remaining on the y‐axis vs time on the x‐axis (min^− ^1). […] To determine the unbound intrinsic clearances the microsomal Clint values were divided by the respective microsomal fraction unbound values. The microsomal unbound fraction both with and without 2% BSA was determined as described previously.15

[5] = human, cited from earlier work; for EHC: enterohepatic circulation ref 11
[6] = system: human intestinal microsomes; set-up: method as in PMID 27862160; settings: human intestinal microsomes ref 6; cited from earlier work
[7] = system: UGT (glucuronidation); test: Liver microsomal glucuronidation assay (dog); format: in vitro ADME; settings: liver microsomes, pH 7.5, dog, without BSA
Procedure: as §3, §4

[8] = system: UGT; test: Liver microsomal glucuronidation assay (dog); format: in vitro ADME; settings: dog liver microsomes, pH 7.5, dog, with 2% BSA
Procedure: as §3, §4

[9] = target: T1, P-gp (Homo sapiens, UniProt P08183); test: Bi‐directional transport across MDCKII cells expressing human P‐gp; format: in vitro ADME; settings: human, MDCK-MDR1, with 2.5 μmol/L LSN335984, uninhibited ratio divided by inhibited ratio; NER >3.0 = P‐gp substrate; read-out: Net efflux ratio
T1 construct: host or cells: MDCKII
Procedure: MDCKII cells stably expressing human wild‐type P‐gp were obtained from the Netherlands Cancer Institute Amsterdam, The Netherlands). MDCK cells were maintained and the assay was conducted essentially as described previously.12, 13 Transport was measured in both directions across uninhibited and inhibited cell monolayers using a substrate concentration of 5 μmol/L diluted from a 10 mmol/L DMSO stock solution final DMSO concentration of 0.05%) and a single 60‐min time interval.

[10] = system: human intestinal microsomes; test: Intestinal glucuronidation in human intestinal microsomes; format: in vitro ADME; settings: data not shown
[11] = with 1 mmol/L ABT, 30 minutes pre-incubation, 1 mmol/L ABT pre‐incubation 30 minutes, read-out: Clint with ABT
[12] = 10^6 cells/mL, read-out: Clint without ABT
[13] = Clint divided by microsomal unbound fraction, read-out: Clint,u, Liver microsomes

T1 sequence (P08183 whole entry): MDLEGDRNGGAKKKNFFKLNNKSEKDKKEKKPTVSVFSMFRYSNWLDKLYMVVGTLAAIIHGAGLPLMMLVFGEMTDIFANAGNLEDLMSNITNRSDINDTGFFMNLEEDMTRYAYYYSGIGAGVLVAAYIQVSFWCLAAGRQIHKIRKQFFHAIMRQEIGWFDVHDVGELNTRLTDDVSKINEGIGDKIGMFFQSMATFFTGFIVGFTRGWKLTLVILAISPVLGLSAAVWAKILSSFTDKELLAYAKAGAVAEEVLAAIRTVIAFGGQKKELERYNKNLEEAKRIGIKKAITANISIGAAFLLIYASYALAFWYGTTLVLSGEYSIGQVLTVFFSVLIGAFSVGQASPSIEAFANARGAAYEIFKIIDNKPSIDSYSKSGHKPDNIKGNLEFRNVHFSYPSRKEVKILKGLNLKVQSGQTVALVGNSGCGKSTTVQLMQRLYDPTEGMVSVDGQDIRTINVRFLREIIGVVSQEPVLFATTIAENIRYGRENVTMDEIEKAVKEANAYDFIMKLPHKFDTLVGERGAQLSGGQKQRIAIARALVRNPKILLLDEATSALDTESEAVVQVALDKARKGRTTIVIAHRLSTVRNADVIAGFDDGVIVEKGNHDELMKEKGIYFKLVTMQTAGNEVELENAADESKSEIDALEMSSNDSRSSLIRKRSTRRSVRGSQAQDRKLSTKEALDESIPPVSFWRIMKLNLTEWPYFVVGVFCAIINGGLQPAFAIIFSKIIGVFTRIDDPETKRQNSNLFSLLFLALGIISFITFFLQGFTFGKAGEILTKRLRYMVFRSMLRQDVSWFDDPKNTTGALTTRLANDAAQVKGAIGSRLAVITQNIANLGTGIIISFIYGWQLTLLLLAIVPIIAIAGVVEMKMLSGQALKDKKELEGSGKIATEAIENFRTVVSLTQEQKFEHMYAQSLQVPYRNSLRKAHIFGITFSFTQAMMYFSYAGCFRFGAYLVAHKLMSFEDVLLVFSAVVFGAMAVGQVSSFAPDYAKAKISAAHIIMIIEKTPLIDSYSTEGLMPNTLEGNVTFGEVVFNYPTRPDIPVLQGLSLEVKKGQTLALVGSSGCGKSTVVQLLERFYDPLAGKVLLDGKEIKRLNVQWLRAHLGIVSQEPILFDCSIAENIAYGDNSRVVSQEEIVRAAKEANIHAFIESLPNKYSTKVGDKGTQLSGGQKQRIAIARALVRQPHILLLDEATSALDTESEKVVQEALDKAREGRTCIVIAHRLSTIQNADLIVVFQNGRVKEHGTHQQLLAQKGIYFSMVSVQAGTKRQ

In the case of `Cc1ccc([C@@H]2O[C@H](CO)[C@@H](O)[C@H](O)[C@H]2O)cc1Cc1ccc(-c2ccc(F)cc2)s1` [Canagliflozin], the hepatocyte CLint at 0.3 µmol/L [1, 11] is reported as 10.1 ± 1.4 µL/min/1e6 cells, the hepatocyte CLint at 0.3 µmol/L [1, 12] is reported as 12.7 ± 2 µL/min/1e6 cells and the “% of inhibition by ABT” value [2] is reported as 20.1 ± 5.1%. The “Hepatic fm by UGT” value [2] was “High (high 70%‐100% in hepatocytes)”, the “Peak area (+ABT)” value [3] was 8448 and the “Peak area (‐ABT)” value [3] was 7808. The microsomal CLint at 2 µmol/L ([4]; Clint divided by microsomal unbound fraction, read-out: Clint,u, Kidney microsomes) was 222 µL/min/mg, the microsomal CLint at 2 µmol/L ([4]; ND = Clint < 1.8, read-out: Clint, Kidney microsomes) was 4 µL/min/mg and the EHC [5] was “No”. The EHC ([5]; listed as canagliflozin) was “negligible”, the “Urinary excretion % of glucuronide” value ([5]; From human 14C study ref 5) was “Moderate ^d (moderate 30%‐70%)” and the intestinal glucuronidation [6] was “negligible”.

With `C[C@H]1c2cccc(CC(C)(C)O)c2C[C@H](CO)N1C(=O)Cc1c(Cl)cccc1Cl` [DPTQ, 2‐(2,6‐dichlorophenyl)‐1‐((1S,3R)‐5‐(2‐hydroxy‐2‐methylpropyl)‐3‐(hydroxymethyl)‐1‐methyl‐3,4‐dihydroisoquinolin‐2(1H)‐yl)ethan‐1‐one] the hepatocyte CLint at 0.3 µmol/L [1, 11] was 5.5 ± 2.2 µL/min/1e6 cells, the hepatocyte CLint at 0.3 µmol/L [1, 12] was 5.8 ± 2 µL/min/1e6 cells and the “% of inhibition by ABT” value [2] was 7.8 ± 9.6%. The “Hepatic fm by UGT” value [2] was “High (high 70%‐100% in hepatocytes)”, the “Peak area (+ABT)” value [3] was 244 and the “Peak area (‐ABT)” value [3] was 33. For the same molecule, the microsomal CLint at 2 µmol/L ([7]; 2 µmol/L, 0.5 mg/mL, UDPGA, ND = Clint < 1.8, read-out: Clint, Liver microsomes) was 99 µL/min/mg, the microsomal CLint at 2 µmol/L [7, 13] was 123 µL/min/mg and the microsomal CLint at 2 µmol/L [8, 13] was 667 µL/min/mg. The microsomal CLint at 2 µmol/L ([8]; ND = Clint < 1.8, read-out: Clint, Liver microsomes) was 79.4 µL/min/mg, the efflux ratio at 60 min, 5 μmol/L [9] was 1.3 and the intestinal glucuronidation [10] was “negligible”.

— paper PMC6609541, “Enterohepatic circulation of glucuronide metabolites of drugs in dog” (Pharmacology Research & Perspectives, 2019)
